Reference: patent EP0550775A1, “Cephalosporin derivatives” (F. HOFFMANN-LA ROCHE AG, priority 1992, dated 1993)
Counter-ions that a name gives are not always drawn. Like-named read-outs stand apart in the source and are kept apart here.

Tests used:
Str. faecalis ATCC 29212 = test: In vitro MIC, Agar Dilution Method; format: cell-based
Description: (§1) In vitro activity of the compounds of the present invention was measured by the Minimum Inhibitory Concentration (MIC) in micrograms/ml utilizing the Agar Dilution Method, which is well known in the art, against a variety of gram-negative and gram-positive organisms.

K. pneumoniae A = test: In vitro MIC, Agar Dilution Method; format: cell-based
Description: as §1

Ser. marcescens SM = test: In vitro MIC, Agar Dilution Method; format: cell-based
Description: as §1

Prot. mirabilis 90 = test: In vitro MIC, Agar Dilution Method; format: cell-based
Description: as §1

Ps. aeruginosa 765 = test: In vitro MIC, Agar Dilution Method; format: cell-based
Description: as §1

Ps. aeruginosa 8780 = test: In vitro MIC, Agar Dilution Method; format: cell-based
Description: as §1

Enter. cloacae 5699 = test: In vitro MIC, Agar Dilution Method; format: cell-based
Description: as §1

Prot. vulgaris 1028 BC = test: In vitro MIC, Agar Dilution Method; format: cell-based
Description: as §1

Ps. aeruginosa 18SH = test: In vitro MIC, Agar Dilution Method; format: cell-based
Description: as §1

Staph. aureus 1059B = test: In vitro MIC, Agar Dilution Method; format: cell-based
Description: as §1

Prot. vulgaris ATCC 6380 = test: In vitro MIC, Agar Dilution Method; format: cell-based
Description: as §1

Staph. aureus Smith = test: In vitro MIC, Agar Dilution Method; format: cell-based
Description: as §1

Ser. marcescens 1071 = test: In vitro MIC, Agar Dilution Method; format: cell-based
Description: as §1

Str. pneumoniae 6301 = test: In vitro MIC, Agar Dilution Method; format: cell-based
Description: as §1

Staph. aureus 753 = test: In vitro MIC, Agar Dilution Method; format: cell-based
Description: as §1

Staph. aureus 67 = test: In vitro MIC, Agar Dilution Method; format: cell-based
Description: as §1

[1] = test system: Ps. aeruginosa ATCC 27853; test: In vitro MIC, Agar Dilution Method; format: cell-based
Description: as §1

Ps. aeruginosa 5712 = test: In vitro MIC, Agar Dilution Method; format: cell-based
Description: as §1

Str. pyogenes 4 = test: In vitro MIC, Agar Dilution Method; format: cell-based
Description: as §1

Cit. freundi BS-16 = test: In vitro MIC, Agar Dilution Method; format: cell-based
Description: as §1

Staph. aureus ATCC 29213 = test: In vitro MIC, Agar Dilution Method; format: cell-based
Description: as §1

E. coli ATCC 25922 = test: microbe, parasite or virus in culture; format: cell-based
Description: as §1

E. coli TEM-1 = test: microbe, parasite or virus in culture; format: cell-based; details: agar dilution
Description: as §1

E. coli 257 = test: microbe, parasite or virus in culture; format: cell-based; details: agar dilution
Description: as §1

Enter. cloacae P99 = test: microbe, parasite or virus in culture; format: cell-based; details: agar dilution
Description: as §1

[2] = Chemical stability (half-life) in phosphate buffer by HPLC; format: physicochemical; details: pH 7.4, phosphate buffer (pH7.40; 37°C)
Description: Chemical stability (half-life) in phosphate buffer (pH 7.40; 37°C) of some of the compounds of the present invention was determined using high performance liquid chromatography (HPLC). A Hamilton PRP-1 (250 mm x 4.1 mm) column was used with UV detection at 280 nm. The mobile phase used consisted of a 0.01 M solution of tetradecyltrimethylammonium bromide in a mixture of 70% 0.072M phosphate buffer (pH 8.2) and 30% acetonitrile. In some experiments, minor adjustments to the pH and in the acetonitrile concentration were made to improve resolutions.

[3] = Str. faecalis ATCC 29212, agar dilution
[4] = Prot. mirabilis 90, agar dilution
[5] = Enter. cloacae 5699, agar dilution
[6] = Ser. marcescens 1071, agar dilution
[7] = Str. pneumoniae 6301, agar dilution
[8] = Staph. aureus 67, agar dilution
[9] = Pseudomonas aeruginosa, read-out: MIC
[10] = Staphylococcus aureus, read-out: MIC
[11] = Escherichia coli, read-out: MIC

Nc1nc(/C(=N/OCC(=O)O)C(=O)N[C@@H]2C(=O)N3C(C(=O)[O-])=C(CN4CCN(c5cc6c(cc5F)c(=O)c(C(=O)O)cn6C5CC5)CC4)CS[C@H]23)cs1.[Na+] [Compound B, [6R-[6α,7β(Z)]]-7-[[(2-Amino-4-thiazolyl)[(carboxy-methoxy)imino]acetyl]amino]-3-[[4-(3-carboxy-1-cyclopropyl-6-fluoro-1,4-dihydro-4-oxo-7-quinolinyl)-1-piperazinyl]methyl]-8-oxo-5-thia-1-azabicyclo[4.2.0]oct-2-ene-2-carboxylic acid sodium salt]
MIC (Str. faecalis ATCC 29212; [3]): 16000 µg/mL
MIC (K. pneumoniae A; K. pneumoniae A, agar dilution): 1000 µg/mL
MIC (Ser. marcescens SM): 1000 µg/mL
MIC (Prot. mirabilis 90; [4]): 2000 µg/mL
MIC (Ps. aeruginosa 765): 8000 µg/mL
MIC (Ps. aeruginosa 8780): 8000 µg/mL
MIC (Enter. cloacae 5699; [5]): 1000 µg/mL
MIC (Prot. vulgaris 1028 BC): 1000 µg/mL
MIC (Ps. aeruginosa 18SH): 4000 µg/mL
MIC (Staph. aureus 1059B): 2000 µg/mL
MIC (Prot. vulgaris ATCC 6380): 250 µg/mL
MIC (Staph. aureus Smith): 8000 µg/mL
MIC (Ser. marcescens 1071; [6]): 2000 µg/mL
MIC (Str. pneumoniae 6301; [7]): 250 µg/mL
MIC (Staph. aureus 753): 8000 µg/mL
MIC (Staph. aureus 67; [8]): 32000 µg/mL
MIC [1]: 16000 µg/mL
MIC (Ps. aeruginosa 5712): 32000 µg/mL
MIC (Str. pyogenes 4; Str. pyogenes 4, agar dilution): 125 µg/mL
MIC (Cit. freundi BS-16): 1000 µg/mL
MIC (Staph. aureus ATCC 29213): 8000 µg/mL
MIC (E. coli ATCC 25922; agar dilution): 500 µg/mL
MIC (E. coli TEM-1): 500 µg/mL
MIC (E. coli 257): 250 µg/mL
MIC (Enter. cloacae P99): 250 µg/mL

O=C([O-])C1=C(CN2CCN(c3cc4c(cc3F)c(=O)c(C(=O)[O-])cn4C3CC3)CC2)CS[C@@H]2[C@H](NC(=O)C(C(=O)[O-])c3ccccc3)C(=O)N12.[Na+].[Na+].[Na+] (stereo partly drawn) [Compound F, (6R-trans)-3-[[4-(3-Carboxy-1-cyclopropyl-6-fluoro-1,4-dihydro-4-oxo-7-quinolinyl)-1-piperazinyl]methyl]-7-[(carboxyphenylacetyl)amino]-8-oxo-5-thia-1-azabicyclo[4.2.0]oct-2-ene-2-carboxylic acid sodium salt]
MIC (Str. faecalis ATCC 29212; Enterococcus faecalis, ATCC29212): 32000 µg/mL
MIC (K. pneumoniae A; Klebsiella pneumoniae): 1000 µg/mL
MIC (Prot. mirabilis 90; Proteus mirabilis, 90): 1000 µg/mL
MIC (Enter. cloacae 5699; Enterobacter cloacae, 5699): 500 µg/mL
MIC (Ser. marcescens 1071; Serratia marcescens, 1071): 500 µg/mL
MIC (Str. pneumoniae 6301; Streptococcus pneumoniae, 6301): 500 µg/mL
MIC (Staph. aureus 67; Staphylococcus aureus, 67): 8000 µg/mL
MIC (Str. pyogenes 4; Streptococcus pyogenes, 4): 500 µg/mL
half-life [2]: 228 h

CC(C)(O/N=C(\C(=O)N[C@@H]1C(=O)N2C(C(=O)[O-])=C(CN3CCN(c4cc5c(cc4F)c(=O)c(C(=O)[O-])cn5C4CC4)CC3)CS[C@H]12)c1csc(N)n1)C(=O)NNC(=O)c1ccc(O)c(O)c1.[Na+].[Na+] [Compound G, [6R-[6α,7β(Z)]]-7-[[[(2-Amino-4-thiazolyl)[1-[[(3,4-dihydroxybenzoyl)hydrazino]carbonyl]-1-methylethoxy]imino]acetyl]amino]-3-[[4-(3-carboxy-1-cyclopropyl-6-fluoro-1,4-dihydro-4-oxo-7-quinolinyl)-1-piperazinyl]methyl]-8-oxo-5-thia-1-azabicyclo[4.2.0]oct-2-ene-2-carboxylic acid sodium salt]
MIC (Str. faecalis ATCC 29212; [3]): 4000 µg/mL
MIC (K. pneumoniae A; K. pneumoniae A, agar dilution): 500 µg/mL
MIC (Ser. marcescens SM): 500 µg/mL
MIC (Prot. mirabilis 90; [4]): 500 µg/mL
MIC (Ps. aeruginosa 765): 500 µg/mL
MIC (Ps. aeruginosa 8780): 250 µg/mL
MIC (Enter. cloacae 5699; [5]): 250 µg/mL
MIC (Prot. vulgaris 1028 BC): 250 µg/mL
MIC (Ps. aeruginosa 18SH): 500 µg/mL
MIC (Staph. aureus 1059B): 4000 µg/mL
MIC (Prot. vulgaris ATCC 6380): 125 µg/mL
MIC (Staph. aureus Smith): 2000 µg/mL
MIC (Ser. marcescens 1071; [6]): 500 µg/mL
MIC (Str. pneumoniae 6301; [7]): 125 µg/mL
MIC (Staph. aureus 753): 4000 µg/mL
MIC (Staph. aureus 67; [8]): 8000 µg/mL
MIC [1]: 500 µg/mL
MIC (Ps. aeruginosa 5712): 250 µg/mL
MIC (Str. pyogenes 4; Str. pyogenes 4, agar dilution): 250 µg/mL
MIC (Cit. freundi BS-16): 250 µg/mL
MIC (Staph. aureus ATCC 29213): 4000 µg/mL
MIC (E. coli ATCC 25922; agar dilution): 125 µg/mL
MIC (E. coli TEM-1): 62.5 µg/mL
MIC (E. coli 257): 125 µg/mL
MIC (Enter. cloacae P99): 250 µg/mL

CC(C)(O/N=C(\C(=O)N[C@@H]1C(=O)N2C(C(=O)[O-])=C(CN3CCN(c4cc5c(cc4F)c(=O)c(C(=O)O)cn5C4CC4)CC3)CS[C@H]12)c1csc(N)n1)C(=O)O.[Na+] [Compound A, [6R-[6α,7β(Z)]]-7-[[(2-Amino-4-thiazolyl)[(1-carboxy-1-methylethoxy)imino]acetyl]amino]-3-[[4-(3-carboxy-1-cyclopropyl-6-fluoro-1,4-dihydro-4-oxo-7-quinolinyl)-1-piperazinyl]methyl]-8-oxo-5-thia-1-azabicyclo[4.2.0]oct-2-ene-2-carboxylic acid sodium salt]
MIC (Str. faecalis ATCC 29212; [3]): 8000 µg/mL
MIC (K. pneumoniae A; K. pneumoniae A, agar dilution): 500 µg/mL
MIC (Ser. marcescens SM): 1000 µg/mL
MIC (Prot. mirabilis 90; [4]): 2000 µg/mL
MIC (Ps. aeruginosa 765): 8000 µg/mL
MIC (Ps. aeruginosa 8780): 8000 µg/mL
MIC (Enter. cloacae 5699; [5]): 1000 µg/mL
MIC (Prot. vulgaris 1028 BC): 1000 µg/mL
MIC (Ps. aeruginosa 18SH): 2000 µg/mL
MIC (Staph. aureus 1059B): 4000 µg/mL
MIC (Prot. vulgaris ATCC 6380): 500 µg/mL
MIC (Staph. aureus Smith): 8000 µg/mL
MIC (Ser. marcescens 1071; [6]): 1000 µg/mL
MIC (Str. pneumoniae 6301; [7]): 250 µg/mL
MIC (Staph. aureus 753): 8000 µg/mL
MIC (Staph. aureus 67; [8]): 16000 µg/mL
MIC [1]: 8000 µg/mL
MIC (Ps. aeruginosa 5712): 16000 µg/mL
MIC (Str. pyogenes 4; Str. pyogenes 4, agar dilution): 250 µg/mL
MIC (Cit. freundi BS-16): 125 µg/mL
MIC (Staph. aureus ATCC 29213): 8000 µg/mL
MIC (E. coli ATCC 25922; agar dilution): 250 µg/mL
MIC (E. coli TEM-1): 500 µg/mL
MIC (E. coli 257): 250 µg/mL
MIC (Enter. cloacae P99): 500 µg/mL

N[C@@H](C(=O)N[C@@H]1C(=O)N2C(C(=O)O)=C(CN3CCN(c4cc5c(cc4F)c(=O)c(C(=O)O)cn5C4CC4)CC3)CS[C@H]12)c1ccccc1 [Compound D, [6R-[6α,7β(R)]]-7-[(Aminophenylacetyl)amino]-3-[[4-(3-carboxy-1-cyclopropyl-6-fluoro-1,4-dihydro-4-oxo-7-quinolinyl)-1-piperazinyl]methyl]-8-oxo-5-thia-1-azabicyclo[4.2.0]oct-2-ene-2-carboxylic acid trifluoroacetic acid salt]
MIC (Str. faecalis ATCC 29212; Enterococcus faecalis, ATCC29212, Str. faecalis ATCC 29212, agar dilution, read-out: MIC): 4000 µg/mL
MIC (K. pneumoniae A; Klebsiella pneumoniae, K. pneumoniae A, agar dilution, read-out: MIC): 31.3 µg/mL
MIC (Ser. marcescens SM; Serratia marcescens, read-out: MIC): 125 µg/mL
MIC (Prot. mirabilis 90; Proteus mirabilis, Prot. mirabilis 90, agar dilution, read-out: MIC): 250 µg/mL
MIC (Ps. aeruginosa 765; [9]): 2000 µg/mL
MIC (Ps. aeruginosa 8780; [9]): 1000 µg/mL
MIC (Enter. cloacae 5699; Enterobacter cloacae, Enter. cloacae 5699, agar dilution, read-out: MIC): 125 µg/mL
MIC (Prot. vulgaris 1028 BC; Proteus vulgaris, read-out: MIC): 62.5 µg/mL
MIC (Ps. aeruginosa 18SH; [9]): 1000 µg/mL
MIC (Staph. aureus 1059B; [10]): 1000 µg/mL
MIC (Prot. vulgaris ATCC 6380; Proteus vulgaris, ATCC6380, read-out: MIC): 62.5 µg/mL
MIC (Staph. aureus Smith; [10]): 500 µg/mL
MIC (Ser. marcescens 1071; Serratia marcescens, Ser. marcescens 1071, agar dilution, read-out: MIC): 125 µg/mL
MIC (Str. pneumoniae 6301; Streptococcus pneumoniae, Str. pneumoniae 6301, agar dilution, read-out: MIC): 2000 µg/mL
MIC (Staph. aureus 753; [10]): 2000 µg/mL
MIC (Staph. aureus 67; Staphylococcus aureus, Staph. aureus 67, agar dilution, read-out: MIC): 2000 µg/mL
MIC ([1]; Pseudomonas aeruginosa, ATCC27853, read-out: MIC): 1000 µg/mL
MIC (Ps. aeruginosa 5712; [9]): 4000 µg/mL
MIC (Str. pyogenes 4; Streptococcus pyogenes, Str. pyogenes 4, agar dilution, read-out: MIC): 1000 µg/mL
MIC (Cit. freundi BS-16; read-out: MIC): 62.5 µg/mL
MIC (Staph. aureus ATCC 29213; Staphylococcus aureus, ATCC29213, read-out: MIC): 1000 µg/mL
MIC (E. coli ATCC 25922; Escherichia coli, ATCC25922, agar dilution, read-out: MIC): 31.3 µg/mL
MIC (E. coli TEM-1; [11]): 31.3 µg/mL
MIC (E. coli 257; [11]): 31.3 µg/mL
MIC (Enter. cloacae P99; Enterobacter cloacae, read-out: MIC): 31.3 µg/mL
